Data reported in article PMC6585443 (ACS infectious diseases, 2018).
Converted amounts (≈) assume the structure as drawn. Values belong to the compound of their own block, whether it stands above or below them.

Legend:
[1] = tested on: human kinases involved in cellular proliferation; details: cited from earlier work
[2] = aqueous solubility pH 7.4; type: physicochemical
P. falciparum W2 = P. falciparum W2 antimalarial activity; type: cell-based, Plasmodium falciparum; details: less potent against W2 (CQ resistant) than D6
P. berghei = experiment: modified Thompson in vivo infection model; details: mice, intraperitoneal 160 mg/kg/day × 3 days; for parasitemia: days 3 to 5 post-infection
P. falciparum D6 = P. falciparum D6 antimalarial activity; type: cell-based, Plasmodium falciparum; details: D6 strain
P. falciparum C235 = P. falciparum C235 antimalarial activity; type: cell-based, Plasmodium falciparum; details: less potent against C235 (CQ, MQ, pyrimethamine resistant) than D6
[3] = rat hepatocyte intrinsic clearance; type: in vitro ADME; details: rat hepatocytes
Aurora A = biological target: T1, Aurora A (Homo sapiens, UniProt O14965); experiment: human kinase panel at 5 μM; type: biochemical; details: test concentration 5 μM
T1 sequence (O14965 1-403): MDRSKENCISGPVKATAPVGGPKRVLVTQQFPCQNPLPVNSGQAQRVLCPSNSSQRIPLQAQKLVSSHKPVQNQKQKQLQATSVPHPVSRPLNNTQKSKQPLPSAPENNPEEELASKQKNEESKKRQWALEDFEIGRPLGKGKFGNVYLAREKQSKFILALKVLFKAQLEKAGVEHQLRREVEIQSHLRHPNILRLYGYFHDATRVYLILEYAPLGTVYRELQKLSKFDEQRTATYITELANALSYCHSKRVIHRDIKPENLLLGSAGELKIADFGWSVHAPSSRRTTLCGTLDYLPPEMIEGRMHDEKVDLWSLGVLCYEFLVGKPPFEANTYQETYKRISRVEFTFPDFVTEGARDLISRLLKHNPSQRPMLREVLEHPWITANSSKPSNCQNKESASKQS

MNK2 = MNK2 (Homo sapiens, UniProt Q9HBH9); experiment: human kinase panel at 5 μM; type: biochemical; details: test concentration 5 μM
MAP4K4 = MAP4K4 (Homo sapiens, UniProt O95819); experiment: human kinase panel at 5 μM; type: biochemical; details: test concentration 5 μM
EGFR = EGFR (Homo sapiens, UniProt P00533); experiment: human kinase panel at 5 μM; type: biochemical; details: test concentration 5 μM
Abl = Abl (Homo sapiens, UniProt P00519); experiment: human kinase panel at 5 μM; type: biochemical; details: test concentration 5 μM
KDR = KDR (Homo sapiens, UniProt P35968); experiment: human kinase panel at 5 μM; type: biochemical; details: test concentration 5 μM
panel of human kinases = experiment: human kinase panel at 5 μM; type: biochemical; details: test concentration 5 μM
[4] = human liver microsome intrinsic clearance; type: in vitro ADME; details: liver microsomes
LogD7.4 = type: physicochemical; details: pH 7.4
[5] = aqueous solution at pH 7.4, pH 7.4, aqueous buffer

Sequence of MAP4K4 (O95819 whole entry): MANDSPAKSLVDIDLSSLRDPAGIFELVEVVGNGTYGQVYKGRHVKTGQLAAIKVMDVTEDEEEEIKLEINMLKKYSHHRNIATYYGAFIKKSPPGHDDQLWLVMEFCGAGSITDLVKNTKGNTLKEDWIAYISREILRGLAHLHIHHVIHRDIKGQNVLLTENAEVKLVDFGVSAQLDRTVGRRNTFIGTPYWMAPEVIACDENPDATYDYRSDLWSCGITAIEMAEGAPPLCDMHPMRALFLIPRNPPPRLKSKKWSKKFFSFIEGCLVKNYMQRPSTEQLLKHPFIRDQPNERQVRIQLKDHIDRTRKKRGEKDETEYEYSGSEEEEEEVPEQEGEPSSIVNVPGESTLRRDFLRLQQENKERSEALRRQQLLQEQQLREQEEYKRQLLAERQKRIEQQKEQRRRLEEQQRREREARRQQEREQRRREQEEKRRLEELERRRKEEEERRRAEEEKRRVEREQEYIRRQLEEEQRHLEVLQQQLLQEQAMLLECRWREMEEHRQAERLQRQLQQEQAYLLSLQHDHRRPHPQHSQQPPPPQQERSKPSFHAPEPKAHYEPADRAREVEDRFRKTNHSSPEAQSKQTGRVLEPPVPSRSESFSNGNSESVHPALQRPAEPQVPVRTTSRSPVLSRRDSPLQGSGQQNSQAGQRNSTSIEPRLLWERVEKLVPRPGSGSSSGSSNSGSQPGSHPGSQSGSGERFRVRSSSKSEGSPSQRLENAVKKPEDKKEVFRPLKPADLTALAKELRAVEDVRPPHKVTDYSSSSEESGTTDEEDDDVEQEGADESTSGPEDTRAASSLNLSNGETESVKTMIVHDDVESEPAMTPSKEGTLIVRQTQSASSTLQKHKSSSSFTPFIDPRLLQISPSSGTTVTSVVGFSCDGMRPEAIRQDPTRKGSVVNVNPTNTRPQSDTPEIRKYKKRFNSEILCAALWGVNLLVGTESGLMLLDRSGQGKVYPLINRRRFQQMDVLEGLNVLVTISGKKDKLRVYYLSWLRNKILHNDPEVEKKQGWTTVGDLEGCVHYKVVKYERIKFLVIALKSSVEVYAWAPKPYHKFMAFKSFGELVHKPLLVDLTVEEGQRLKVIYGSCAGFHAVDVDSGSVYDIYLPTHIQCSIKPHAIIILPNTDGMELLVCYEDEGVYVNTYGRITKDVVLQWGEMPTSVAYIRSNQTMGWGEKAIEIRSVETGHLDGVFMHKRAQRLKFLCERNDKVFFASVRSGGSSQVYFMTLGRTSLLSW
Sequence of KDR (P35968 20-1356): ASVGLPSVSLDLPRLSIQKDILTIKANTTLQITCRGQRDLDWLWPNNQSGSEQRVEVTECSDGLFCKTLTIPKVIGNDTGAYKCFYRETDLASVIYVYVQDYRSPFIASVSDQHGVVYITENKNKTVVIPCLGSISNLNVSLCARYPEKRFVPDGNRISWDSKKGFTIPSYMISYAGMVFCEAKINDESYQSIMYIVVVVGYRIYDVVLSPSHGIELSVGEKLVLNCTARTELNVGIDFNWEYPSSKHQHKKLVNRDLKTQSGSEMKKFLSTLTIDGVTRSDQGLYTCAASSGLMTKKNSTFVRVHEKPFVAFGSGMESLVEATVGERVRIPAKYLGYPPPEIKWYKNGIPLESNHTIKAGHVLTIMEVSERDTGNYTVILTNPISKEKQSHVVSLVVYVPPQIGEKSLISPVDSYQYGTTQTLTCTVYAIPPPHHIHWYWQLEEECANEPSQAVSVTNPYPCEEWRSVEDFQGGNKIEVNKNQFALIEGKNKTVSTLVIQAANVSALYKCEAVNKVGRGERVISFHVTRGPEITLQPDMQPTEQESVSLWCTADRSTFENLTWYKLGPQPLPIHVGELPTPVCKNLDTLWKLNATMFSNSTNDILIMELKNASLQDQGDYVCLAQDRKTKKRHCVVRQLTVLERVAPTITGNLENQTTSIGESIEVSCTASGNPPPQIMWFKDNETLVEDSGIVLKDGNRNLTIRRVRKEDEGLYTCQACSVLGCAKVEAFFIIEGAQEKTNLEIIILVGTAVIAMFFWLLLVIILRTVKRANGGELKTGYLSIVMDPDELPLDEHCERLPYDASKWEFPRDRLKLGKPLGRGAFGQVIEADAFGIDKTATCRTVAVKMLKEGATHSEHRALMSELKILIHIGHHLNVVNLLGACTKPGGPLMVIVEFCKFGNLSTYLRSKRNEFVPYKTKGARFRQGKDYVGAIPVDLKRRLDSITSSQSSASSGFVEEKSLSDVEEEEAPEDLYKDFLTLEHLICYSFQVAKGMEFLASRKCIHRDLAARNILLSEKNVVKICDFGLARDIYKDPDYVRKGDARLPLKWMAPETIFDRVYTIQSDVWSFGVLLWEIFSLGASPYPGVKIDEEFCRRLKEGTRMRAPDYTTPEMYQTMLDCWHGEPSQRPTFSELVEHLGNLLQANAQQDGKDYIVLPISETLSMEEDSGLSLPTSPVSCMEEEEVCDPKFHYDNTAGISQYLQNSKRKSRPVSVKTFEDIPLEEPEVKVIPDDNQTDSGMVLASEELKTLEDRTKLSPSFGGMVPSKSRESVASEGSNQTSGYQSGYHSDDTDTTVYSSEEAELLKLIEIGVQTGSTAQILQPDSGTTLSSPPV
Sequence of MNK2 (Q9HBH9 whole entry): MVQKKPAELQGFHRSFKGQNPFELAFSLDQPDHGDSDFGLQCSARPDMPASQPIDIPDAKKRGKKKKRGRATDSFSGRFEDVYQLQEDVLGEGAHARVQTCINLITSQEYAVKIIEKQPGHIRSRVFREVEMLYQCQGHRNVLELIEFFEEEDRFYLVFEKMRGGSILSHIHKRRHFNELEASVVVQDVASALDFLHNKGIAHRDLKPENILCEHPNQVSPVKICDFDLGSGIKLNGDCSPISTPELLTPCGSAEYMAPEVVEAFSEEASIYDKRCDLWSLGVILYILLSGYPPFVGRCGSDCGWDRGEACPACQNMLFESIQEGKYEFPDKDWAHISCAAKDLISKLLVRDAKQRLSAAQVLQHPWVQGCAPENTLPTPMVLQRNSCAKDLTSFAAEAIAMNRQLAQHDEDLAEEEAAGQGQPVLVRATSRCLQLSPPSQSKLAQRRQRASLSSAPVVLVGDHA
Sequence of EGFR (P00533 25-1210): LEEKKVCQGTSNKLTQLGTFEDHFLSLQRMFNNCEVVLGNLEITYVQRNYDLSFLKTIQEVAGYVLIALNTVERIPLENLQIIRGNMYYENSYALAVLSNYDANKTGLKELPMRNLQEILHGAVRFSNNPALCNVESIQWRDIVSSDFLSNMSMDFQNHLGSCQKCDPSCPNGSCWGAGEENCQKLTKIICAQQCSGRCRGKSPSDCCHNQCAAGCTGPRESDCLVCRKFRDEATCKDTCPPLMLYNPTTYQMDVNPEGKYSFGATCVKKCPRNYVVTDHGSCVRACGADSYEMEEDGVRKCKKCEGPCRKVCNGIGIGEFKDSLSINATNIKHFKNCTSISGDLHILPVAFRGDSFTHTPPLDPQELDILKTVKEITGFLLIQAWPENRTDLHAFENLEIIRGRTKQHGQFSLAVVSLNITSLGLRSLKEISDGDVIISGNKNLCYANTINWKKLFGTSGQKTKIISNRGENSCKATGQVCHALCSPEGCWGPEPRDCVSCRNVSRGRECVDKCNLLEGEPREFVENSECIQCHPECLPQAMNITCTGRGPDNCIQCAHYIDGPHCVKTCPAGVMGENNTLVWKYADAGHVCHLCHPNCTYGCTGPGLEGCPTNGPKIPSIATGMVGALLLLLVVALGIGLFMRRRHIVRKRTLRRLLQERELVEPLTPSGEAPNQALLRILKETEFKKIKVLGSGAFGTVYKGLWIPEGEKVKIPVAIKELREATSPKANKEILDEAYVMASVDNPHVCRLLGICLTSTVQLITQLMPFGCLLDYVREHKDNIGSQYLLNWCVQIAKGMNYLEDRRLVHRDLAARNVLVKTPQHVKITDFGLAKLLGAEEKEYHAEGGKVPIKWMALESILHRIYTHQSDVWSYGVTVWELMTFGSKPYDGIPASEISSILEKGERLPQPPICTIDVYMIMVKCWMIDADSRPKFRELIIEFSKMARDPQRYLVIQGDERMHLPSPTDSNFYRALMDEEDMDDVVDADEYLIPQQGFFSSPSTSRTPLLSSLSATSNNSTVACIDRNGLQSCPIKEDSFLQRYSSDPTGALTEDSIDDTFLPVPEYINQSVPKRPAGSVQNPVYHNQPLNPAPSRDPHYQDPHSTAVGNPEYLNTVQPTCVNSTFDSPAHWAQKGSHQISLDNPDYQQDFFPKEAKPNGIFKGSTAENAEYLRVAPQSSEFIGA

SMILES: CS(=O)(=O)CCNCc1ccc(-c2ccc3ncnc(Nc4ccc(OCc5cccc(F)c5)c(Cl)c4)c3c2)o1 [Compound 1, lapatinib]
selectivity versus numerous human kinases [1]: > 300 fold

solubility ([2]; aqueous medium, pH 7.4, aqueous buffer): 100 µM (≈ 52.3 µg/mL)
SMILES: COc1ccc(Nc2ccnc3cc(-c4ccc(S(=O)(=O)N5CCN(C)CC5)cc4)ccc23)cc1Cl [Compound 7, N-(3-Chloro-4-methoxyphenyl)-7-{4-[(4-methylpiperazin-1-yl)sulfonyl]phenyl}quinolin-4-amine]
activity against W2 strain relative to D6 (fold) (P. falciparum W2): > 3 fold | life extension compared to the control group (P. berghei): 5 days | parasitemia (P. berghei): reduction in parasitemia

SMILES: Cc1ccc(Nc2ccnc3cc(-c4ccc(S(=O)(=O)N5CCN(C)CC5)cc4)ccc23)cc1Cl [Compound 11, N-(3-Chloro-4-methylphenyl)-7-{4-[(4-methylpiperazin-1-yl)sulfonyl]phenyl}quinolin-4-amine]
activity against W2 strain relative to D6 (fold) (P. falciparum W2): > 3 fold

SMILES: CN1CCN(S(=O)(=O)c2ccc(-c3ccc4c(Nc5cccnc5)ccnc4c3)cc2)CC1 [Compound 12, 7-{4-[(4-Methylpiperazin-1-yl)sulfonyl]phenyl}-N-(pyridin-3-yl)quinolin-4-amine]
reduction in potency compared to 3 (P. falciparum D6): 10 fold

SMILES: CN1CCN(S(=O)(=O)c2ccc(-c3ccc4c(Nc5cnccn5)ccnc4c3)cc2)CC1 [Compound 14, 7-{4-[(4-Methylpiperazin-1-yl)sulfonyl]phenyl}-N-(pyrazin-2-yl)quinolin-4-amine]
activity against W2 strain relative to D6 (fold) (P. falciparum W2): > 3 fold

SMILES: CN1CCN(S(=O)(=O)c2ccc(-c3ccc4c(Nc5cnc(C#N)cn5)ccnc4c3)cc2)CC1 [Compound 19, 5-[(7-{4-[(4-Methylpiperazin-1-yl)sulfonyl]phenyl}quinolin-4-yl)amino]pyrazine-2-carbonitrile]
activity against W2 strain relative to D6 (fold) (P. falciparum W2): > 3 fold

SMILES: CN1CCN(S(=O)(=O)c2ccc(-c3ccc4c(Nc5ncc(Cl)cn5)ccnc4c3)cc2)CC1 [Compound 21, N-(5-Chloropyrimidin-2-yl)-7-{4-[(4-methylpiperazin-1-yl)sulfonyl]phenyl}quinolin-4-amine]
activity against W2 strain relative to D6 (fold) (P. falciparum W2): > 3 fold | activity against C235 strain relative to D6 (fold) (P. falciparum C235): > 3 fold

SMILES: Cc1nnc(Nc2ccnc3cc(-c4ccc(S(=O)(=O)N5CCN(C)CC5)cc4)ccc23)nc1C [Compound 23, N-(Dimethyl-1,2,4-triazin-3-yl)-7-{4-[(4-methylpiperazin-1-yl)sulfonyl]phenyl}quinolin-4-amine]
activity against W2 strain relative to D6 (fold) (P. falciparum W2): > 3 fold

SMILES: Cc1cc(Nc2ccnc3cc(-c4ccc(S(=O)(=O)N5CCN(C)CC5)cc4)ccc23)sn1 [Compound 24, N-(3-Methyl-1,2-thiazol-5-yl)-7-{4-[(4-methylpiperazin-1-yl)sulfonyl]phenyl}quinolin-4-amine]
activity against W2 strain relative to D6 (fold) (P. falciparum W2): > 3 fold

SMILES: CN1CCN(c2nsnc2-c2ccc3c(Nc4ccc(OCc5cccc(F)c5)c(Cl)c4)ccnc3c2)CC1 [Compound 30, N-(3-Chloro-4-((3-fluorobenzyl)oxy)phenyl)-7-(4-(4-methylpiperazin-1-yl)-1,2,5-thiadiazol-3-yl)quinolin-4-amine]
reduction in potency compared to 3 (P. falciparum D6): six-fold reduction in potency

SMILES: CC(C)(C)OC(=O)Nc1ccc2c(Nc3ccc(OCc4cccc(F)c4)c(Cl)c3)ccnc2c1 [Compound 36, Tert-butyl (4-((3-Chloro-4-((3-fluorobenzyl)oxy)phenyl)amino)quinolin-7-yl)carbamate]
reduction in potency compared to 3 (P. falciparum D6): almost three-fold drop in potency | activity against W2 strain relative to D6 (fold) (P. falciparum W2): > 3 fold

Rat Hepatocyte CLint [3]: 130 μL/min/10^6 | inhibition of Aurora A (Aurora A): significant inhibition | inhibition of MNK2 (MNK2): significant inhibition | inhibition of MAP4K4 (MAP4K4): significant inhibition | inhibition of EGFR (EGFR): significant inhibition | inhibition of Abl (Abl): significant inhibition | inhibition of KDR (KDR): significant inhibition | number of kinases with insignificant inhibition (panel of human kinases): 28 kinases | number of kinases with moderate to weak inhibition (panel of human kinases): 10 kinases
SMILES: CN1CCN(c2ncc(-c3ccc4c(Nc5cnccn5)ccnc4c3)cn2)CC1 [Compound 40, 7-(2-(4-Methylpiperazin-1-yl)pyrimidin-5-yl)-N-(pyrazin-2-yl)quinolin-4-amine]
parasitemia (P. berghei): reduction in parasitemia

solubility [2, 5]: < 1 µM | Rat Hepatocyte CLint [3]: 45 μL/min/10^6
SMILES: COc1ccc(Nc2ccnc3cc(-c4cnc(N5CCN(C)CC5)nc4)ccc23)cc1Cl [Compound 41, N-(3-Chloro-4-methoxyphenyl)-7-(2-(4-methylpiperazin-1-yl)pyrimidin-5-yl)quinolin-4-amine]

solubility [2, 5]: < 1 µM | microsomal CLint [4]: 120 µL/min/mg | Rat Hepatocyte CLint [3]: 51 μL/min/10^6 | logD (LogD7.4): 3.3
SMILES: CN1CCN(c2ncc(-c3ccc4c(Nc5ccc6[nH]nnc6c5)ccnc4c3)cn2)CC1 [Compound 42, N-(1H-Benzo[d][1,2,3]triazol-5-yl)-7-(2-(4-methylpiperazin-1-yl)pyrimidin-5-yl)quinolin-4-amine]

solubility [2, 5]: 1 µM (≈ 0.288 µg/mL) | microsomal CLint [4]: 130 µL/min/mg | Rat Hepatocyte CLint [3]: 5.0 μL/min/10^6 | logD (LogD7.4): 2.6
SMILES: c1cnc(Nc2ccnc3cc(-c4cn[nH]c4)ccc23)cn1 [Compound 43, N-(Pyrazin-2-yl)-7-(1H-pyrazol-4-yl)quinolin-4-amine]

solubility [2, 5]: 2 µM (≈ 0.702 µg/mL) | microsomal CLint [4]: 8 µL/min/mg | Rat Hepatocyte CLint [3]: 5.0 μL/min/10^6 | logD (LogD7.4): 3.5
SMILES: COc1ccc(Nc2ccnc3cc(-c4cn[nH]c4)ccc23)cc1Cl [Compound 44, N-(3-Chloro-4-methoxyphenyl)-7-(1H-pyrazol-4-yl)quinolin-4-amine]

Rat Hepatocyte CLint [3]: 10 μL/min/10^6 | logD (LogD7.4): 2.2
SMILES: CN1CCN(c2ccc(Nc3ccc4c(Nc5cnccn5)ccnc4c3)cc2)CC1 [Compound 45, N^7-(4-(4-Methylpiperazin-1-yl)phenyl)-N^4-(pyrazin-2-yl)quinoline-4,7-diamine]

Rat Hepatocyte CLint [3]: 9.3 μL/min/10^6 | logD (LogD7.4): 2.8
SMILES: CN1CCN(c2ccnc(Nc3ccc4c(Nc5cnccn5)ccnc4c3)n2)CC1 [Compound 46, N^7-(4-(4-Methylpiperazin-1-yl)pyrimidin-2-yl)-N^4-(pyrazin-2-yl)quinoline-4,7-diamine]

solubility [2, 5]: 570 µM (≈ 271 µg/mL) | Rat Hepatocyte CLint [3]: 7.2 μL/min/10^6 | logD (LogD7.4): 3.3
SMILES: COc1ccc(Nc2ccnc3cc(Nc4nccc(N5CCN(C)CC5)n4)ccc23)cc1Cl [Compound 47, N^4-(3-Chloro-4-methoxyphenyl)-N^7-(4-(4-methylpiperazin-1-yl)pyrimidin-2-yl)quinoline-4,7-diamine]

logD (LogD7.4): 2.9
SMILES: CN1CCN(c2nccc(Nc3ccc4c(Nc5cnccn5)ccnc4c3)n2)CC1 [Compound 48, N^7-(2-(4-Methylpiperazin-1-yl)pyrimidin-4-yl)-N^4-(pyrazin-2-yl)quinoline-4,7-diamine]

microsomal CLint [4]: 45 µL/min/mg | Rat Hepatocyte CLint [3]: 2.3 μL/min/10^6
SMILES: COc1ccc(Nc2ccnc3cc(Nc4ccnc(N5CCN(C)CC5)n4)ccc23)cc1Cl [Compound 49, N^4-(3-Chloro-4-methoxyphenyl)-N^7-(2-(4-methylpiperazin-1-yl)pyrimidin-4-yl)quinoline-4,7-diamine]
